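Each compound was tested at five concentrations against cells in 96-well plates for 48 hours. At the TGI there is no net growth.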
Tests used:
Assay in all cases: NCI-60 cell line screen, 48 h
[1] = test system: UACC-62 melanoma
[2] = test system: SK-MEL-2 melanoma
[3] = test system: OVCAR-3 ovarian
[4] = test system: XF 498 CNS
[5] = test system: ACHN renal
[6] = test system: EKVX NSCLC
[7] = test system: SW-620 colon
[8] = test system: SF-268 CNS
[9] = test system: A498 renal
[10] = test system: SK-MEL-5 melanoma
[11] = test system: M14 melanoma
[12] = test system: OVCAR-8 ovarian
[13] = test system: SF-539 CNS
[14] = test system: OVCAR-5 ovarian
[15] = test system: KM12 colon
[16] = test system: MALME-3M melanoma
[17] = test system: CCRF-CEM leukemia
[18] = test system: DMS 273 small cell lung
[19] = test system: OVCAR-4 ovarian
[20] = test system: MOLT-4 leukemia
[21] = test system: NCI-H522 lung
[22] = test system: HT29 colon
[23] = test system: SNB-19 CNS
[24] = test system: U251 CNS
[25] = test system: SN12C renal
[26] = test system: SNB-75 CNS
[27] = test system: KM20L2 colon
[28] = test system: COLO 205 colon
[29] = test system: UO-31 renal
[30] = test system: HOP-62 NSCLC
[31] = test system: 786-0 renal
[32] = test system: UACC-257 melanoma
[33] = test system: RPMI-8226 leukemia
[34] = test system: SK-MEL-28 melanoma
[35] = test system: LOX IMVI melanoma
[36] = test system: SK-OV-3 ovarian
[37] = test system: K-562 leukemia
[38] = test system: HCT-116 colon
[39] = test system: NCI-H23 lung
[40] = test system: HCT-15 colon
[41] = test system: HL-60(TB) leukemia
[42] = test system: LXFL 529 NSCLC
[43] = test system: NCI-H460 lung
[44] = test system: A549 NSCLC
[45] = test system: RXF 393 renal
[46] = test system: CAKI-1 renal
[47] = test system: SNB-78 CNS
[48] = test system: SF-295 CNS
[49] = test system: DMS 114 small cell lung
[50] = test system: SR leukemia
[51] = test system: M19-MEL melanoma
[52] = test system: HOP-18 NSCLC
[53] = test system: DLD-1 colon
[54] = test system: IGROV1 ovarian
[55] = test system: HOP-92 NSCLC
[56] = test system: TK-10 renal
[57] = test system: HCC-2998 colon
[58] = test system: NCI-H226 lung

SMILES: CC(=O)OCC(OC(C)=O)C(OC(C)=O)C(OC(C)=O)C(=O)CNn1c(-c2ccc(C)cc2)nc2ccccc2c1=O (centres undefined)
- TGI [1]: > 100 µM
- TGI [2]: > 100 µM
- TGI [3]: > 100 µM
- TGI [4]: > 100 µM
- TGI [5]: > 100 µM
- TGI [6]: > 100 µM
- TGI [7]: > 100 µM
- TGI [8]: > 100 µM
- TGI [9]: > 100 µM
- TGI [10]: > 100 µM
- TGI [11]: > 100 µM
- TGI [12]: > 100 µM
- TGI [13]: > 100 µM
- TGI [14]: > 100 µM
- TGI [15]: > 100 µM
- TGI [16]: > 100 µM
- TGI [17]: > 100 µM
- TGI [18]: > 100 µM
- TGI [19]: > 100 µM
- TGI [20]: > 100 µM
- TGI [21]: > 100 µM
- TGI [22]: > 100 µM
- TGI [23]: > 100 µM
- TGI [24]: > 100 µM
- TGI [25]: > 100 µM
- TGI [26]: > 100 µM
- TGI [27]: > 100 µM
- TGI [28]: > 100 µM
- TGI [29]: > 100 µM
- TGI [30]: > 100 µM
- TGI [31]: > 100 µM
- TGI [32]: > 100 µM
- TGI [33]: > 100 µM
- TGI [34]: > 100 µM
- TGI [35]: > 100 µM
- TGI [36]: > 100 µM
- TGI [37]: > 100 µM
- TGI [38]: > 100 µM
- TGI [39]: > 100 µM
- TGI [40]: > 100 µM
- TGI [41]: > 100 µM
- TGI [42]: > 100 µM
- TGI [43]: > 100 µM
- TGI [44]: > 100 µM
- TGI [45]: > 100 µM
- TGI [46]: > 100 µM
- TGI [47]: > 100 µM
- TGI [48]: > 100 µM
- TGI [49]: > 100 µM
- TGI [50]: > 100 µM
- TGI [51]: > 100 µM

SMILES: COC1O[C@@H]2COC(C)(C)O[C@@H]2C(=O)N1Nc1ccc([N+](=O)[O-])cc1 (some centres undefined)
- TGI [52]: > 100 µM
- TGI [1]: > 100 µM
- TGI [2]: > 100 µM
- TGI [3]: > 100 µM
- TGI [4]: > 100 µM
- TGI [5]: > 100 µM
- TGI [6]: > 100 µM
- TGI [7]: 72.9 µM
- TGI [8]: > 100 µM
- TGI [9]: > 100 µM
- TGI [10]: > 100 µM
- TGI [11]: > 100 µM
- TGI [12]: > 100 µM
- TGI [13]: > 100 µM
- TGI [14]: > 100 µM
- TGI [15]: > 100 µM
- TGI [16]: > 100 µM
- TGI [18]: > 100 µM
- TGI [53]: > 100 µM
- TGI [19]: > 100 µM
- TGI [20]: > 100 µM
- TGI [54]: > 100 µM
- TGI [22]: > 100 µM
- TGI [23]: > 100 µM
- TGI [24]: > 100 µM
- TGI [25]: > 100 µM
- TGI [26]: > 100 µM
- TGI [27]: > 100 µM
- TGI [28]: > 100 µM
- TGI [29]: > 100 µM
- TGI [30]: > 100 µM
- TGI [31]: > 100 µM
- TGI [32]: > 100 µM
- TGI [55]: > 100 µM
- TGI [33]: 45.4 µM
- TGI [56]: > 100 µM
- TGI [34]: > 100 µM
- TGI [35]: 95.5 µM
- TGI [36]: > 100 µM
- TGI [37]: > 100 µM
- TGI [57]: > 100 µM
- TGI [38]: > 100 µM
- TGI [39]: > 100 µM
- TGI [40]: > 100 µM
- TGI [41]: > 100 µM
- TGI [42]: > 100 µM
- TGI [43]: > 100 µM
- TGI [44]: > 100 µM
- TGI [45]: > 100 µM
- TGI [46]: > 100 µM
- TGI [48]: > 100 µM
- TGI [51]: > 100 µM
- TGI [58]: > 100 µM
